pIC50: −log10 of the molar value.
Columns and labels:
HepG2 [1] = assay: Cytotoxicity in human HepG2 cells assessed as reduction in cell viability incubated for 48 hrs by MTT assay; assay type: functional, cell-based; conditions: HepG2, 48 h
HeLa [2] = assay: Cytotoxicity in human HeLa cells assessed as reduction in cell viability incubated for 48 hrs by MTT assay; assay type: functional, cell-based
BGC-823 = assay: Cytotoxicity in human BGC823 cells assessed as reduction in cell viability incubated for 48 hrs by MTT assay; assay type: functional, cell-based; conditions: BGC-823, 48 h
MCF7 [3] = assay: Cytotoxicity in human MCF7 cells assessed as reduction in cell viability incubated for 24 hrs by MTT assay; assay type: functional, cell-based; conditions: MCF7, 24 h
A549 [4] = assay: Cytotoxicity in human A549 cells assessed as reduction in cell viability incubated for 24 hrs by MTT assay; assay type: functional, cell-based; conditions: A549, 24 h
A549 [5] = assay: Potency index, ratio of IC50 for Iressa to IC50 for test compound for cytotoxicity in human A549 cells assessed as reduction in cell viability incubated for 24 hrs by MTT assay; assay type: functional
HepG2 [6] = assay: Cytotoxicity in human HepG2 cells assessed as reduction in cell viability incubated for 72 hrs by cell-titer Glo asay; assay type: functional, cell-based; conditions: HepG2, 72 h
Huh-7 = assay: Cytotoxicity in human HuH7 cells assessed as reduction in cell viability incubated for 72 hrs by cell-titer Glo asay; assay type: functional, cell-based; conditions: Huh-7, 72 h
Hep 3B2 = assay: Cytotoxicity in human Hep3B cells assessed as reduction in cell viability incubated for 72 hrs by cell-titer Glo asay; assay type: functional, cell-based
MDA-MB-231 [7] = assay: Antiproliferative activity in human MDA-MB-231 cells assessed as reduction in cell viability incubated for 24 to 72 hrs by MTT assay; assay type: functional, cell-based
MDA-MB-231 [8] = assay: Inhibition of cell invasion in human MDA-MB-231 cells; assay type: functional
HeLa [9] = assay: Cytotoxicity in human HeLa cells assessed as reduction in cell viability incubated for 72 hrs by MTT assay; assay type: functional, cell-based
HT-29 = assay: Cytotoxicity in human HT-29 cells assessed as reduction in cell viability incubated for 72 hrs by MTT assay; assay type: functional, cell-based; conditions: HT-29, 72 h
MCF7 [10] = assay: Cytotoxicity in human MCF7 cells assessed as reduction in cell viability incubated for 72 hrs by MTT assay; assay type: functional, cell-based; conditions: MCF7, 72 h
BJ = assay: Cytotoxicity in human BJ cells assessed as reduction in cell viability incubated for 72 hrs by MTT assay; assay type: functional, cell-based
[11] = Cytotoxicity in human A375-S2 cells assessed as reduction in cell viability incubated for 48 hrs by MTT assay; assay type: functional, cell-based; conditions: A375-S2, 48 h
PC-3 = assay: Cytotoxicity in human PC3 cells assessed as reduction in cell viability incubated for 48 hrs by XTT assay; assay type: functional, cell-based; conditions: PC-3, 48 h
Bel-7402 = assay: Cytotoxicity in human Bel7402 cells assessed as reduction in cell viability incubated for 72 hrs by MTT assay; assay type: functional, cell-based; conditions: Bel-7402, 72 h
H4 = assay: Cytotoxicity in human H4 cells assessed as reduction in cell viability incubated for 72 hrs by MTT assay; assay type: functional, cell-based; conditions: H4, 72 h
COLO 205 = assay: Cytotoxicity in human COLO205 cells assessed as reduction in cell viability incubated for 72 hrs by MTT assay; assay type: functional, cell-based; conditions: COLO 205, 72 h
NCI-H1299 = assay: Cytotoxicity in human NCI-H1299 cells assessed as reduction in cell viability; assay type: functional, cell-based
[12] = Cytotoxicity in human BCP-ALL cells assessed as reduction in cell viability; assay type: functional, cell-based
T-ALL = assay: Cytotoxicity in human T-ALL cells assessed as reduction in cell viability; assay type: functional, cell-based
Daudi = assay: Cytotoxicity in human Daudi cells assessed as reduction in cell viability; assay type: functional, cell-based
HL-60 = assay: Cytotoxicity in human HL60 cells assessed as reduction in cell viability; assay type: functional, cell-based
AGS = assay: Cytotoxicity in human AGS cells assessed as reduction in cell viability incubated for 24 hrs by MTT assay; assay type: functional, cell-based
[13] = Cytotoxicity in human HELF cells assessed as reduction in cell viability incubated for 24 hrs by MTT assay; assay type: cell-based
[14] = Cytotoxicity in human […] cells assessed as reduction in cell viability incubated for 72 hrs by MTT assay; assay type: functional, cell-based
MCF7 [15] = assay: Cytotoxicity in human MCF7 cells assessed as reduction in cell viability incubated for 48 hrs by SRB assay; assay type: functional, cell-based; conditions: MCF7, 48 h
MDA-MB-231 [16] = assay: Cytotoxicity in human MDA-MB-231 cells assessed as reduction in cell viability incubated for 48 hrs by SRB assay; assay type: functional; conditions: MDA-MB-231, 48 h
HMEC = assay: Cytotoxicity in human HMEC cells assessed as reduction in cell viability incubated for 48 hrs by SRB assay; assay type: cell-based

**Q.** With `CC(=O)O/N=C1\CC[C@]2(C)[C@H]3CC=C4[C@@H]5[C@@H](C)[C@H](C)CC[C@]5(C(=O)Nc5ccccc5)CC[C@@]4(C)[C@]3(C)CC[C@H]2C1(C)C` as the compound, how does the pIC50 (HepG2 [1]) read?
**A.** 4.67

**Q.** What about the pIC50 (HeLa [2]) of the same compound?
**A.** 5.03

**Q.** And the pIC50 (BGC-823)?
**A.** 5.09

**Q.** With `CC(=O)O/N=C1\CC[C@]2(C)[C@H]3CC=C4[C@@H]5[C@@H](C)[C@H](C)CC[C@]5(C(=O)Nc5ccccc5C(=O)O)CC[C@@]4(C)[C@]3(C)CC[C@H]2C1(C)C` as the compound, how does the pIC50 (HepG2 [1]) read?
**A.** 4.63

**Q.** And the pIC50 (HeLa [2])?
**A.** 4.86

**Q.** What about the pIC50 (BGC-823) of the same compound?
**A.** 5.04

**Q.** With `CC1(C)CC[C@]2(C(=O)O)CC[C@]3(C)C(=CC[C@@H]4[C@@]5(C)CC[C@H](O[C@@H]6OC[C@H](O)[C@H](O[C@H]7O[C@H](CO)[C@@H](O)[C@H](O)[C@@H]7O)[C@H]6O)[C@@](C)(CO)[C@@H]5CC[C@]43C)[C@H]2C1` as the compound, how does the pIC50 (MCF7 [3]) read?
**A.** 4.71

**Q.** What about the pIC50 (A549 [4]) of the same compound?
**A.** 5.18

**Q.** What about the “Ratio IC50” value (A549 [5]) of the same compound?
**A.** 4

**Q.** With `CC1=C(O)C(=O)C=C2C1=CC=C1[C@@]2(C)CC[C@@]2(C)[C@@H]3C[C@](C)(C(=O)NCCc4ccccc4)CC[C@]3(C)CC[C@]12C` as the compound, how does the pIC50 (HepG2 [6]) read?
**A.** 5.45

**Q.** And the pIC50 (Huh-7)?
**A.** 5.98

**Q.** And the pIC50 (Hep 3B2)?
**A.** 5.97

**Q.** What does the source list for `CC1(C)CC[C@]2(C(=O)O)CC[C@]3(C)C(=CC[C@@H]4[C@@]5(C)CC[C@H](OC(=O)NS(=O)(=O)c6ccc(F)cc6)C(C)(C)[C@@H]5CC[C@]43C)[C@@H]2C1`?
**A.** pIC50 (MDA-MB-231 [7]): 5.47; inhibition (INH) (MDA-MB-231 [8]): 72.5%

**Q.** With `COC(=O)[C@]12CC[C@@H](C)[C@H](C)[C@H]1C1=CC(=O)[C@@H]3[C@@]4(C)C(C=O)=C[C@@](C)(COS(C)(=O)=O)[C@@H]4CC[C@@]3(C)[C@]1(C)CC2` as the compound, how does the pIC50 (HeLa [9]) read?
**A.** 6.62

**Q.** And the pIC50 (HT-29)?
**A.** 6.23

**Q.** And the pIC50 (MCF7 [10])?
**A.** 6.19

**Q.** What about the pIC50 (BJ) of the same compound?
**A.** 5.61

**Q.** With `CC1(C)CC[C@]2(C(=O)OCc3cn(-c4ccc([N+](=O)[O-])cc4)nn3)CC[C@]3(C)C(=CC[C@@H]4[C@@]5(C)CCC(=O)C(C)(C)[C@@H]5CC[C@]43C)[C@@H]2C1` as the compound, how does the pIC50 [11] read?
**A.** > 5.52

**Q.** With `C[C@H]1[C@H](C)CC[C@]2(C)CC[C@]3(C)C(=CC(=O)[C@@H]4[C@@]5(C)CC[C@H](OC(=O)/C=C/c6ccccc6)[C@](C)(C(=O)O)[C@@H]5CC[C@]43C)[C@H]12` as the compound, how does the pIC50 (PC-3) read?
**A.** 5.44

**Q.** Which results are given for `CC(=O)Oc1cc2c(c(C)c1OC(C)=O)C(S(=O)(=O)O)C=C1C2(C)CC[C@@]2(C)[C@@H]3C[C@](C)(C(=O)O)CC[C@]3(C)CC[C@]12C` (single isomer, unassigned)?
**A.** pIC50 (Bel-7402): 5.76; pIC50 (H4): 5.86; pIC50 (COLO 205): 7.22

**Q.** What does the source list for `CC1=C(O)C(=O)C=C2C1=CC=C1[C@@]2(C)CC[C@@]2(C)[C@@H]3C[C@](C)(C(=O)O)CC[C@]3(C)CC[C@]12C` [CELASTROL]?
**A.** pIC50 (NCI-H1299): > 6.00; pIC50 [12]: > 6.00; pIC50 (T-ALL): > 6.00; pIC50 (Daudi): > 6.00; pIC50 (HL-60): > 6.00

**Q.** With `C[C@H]1[C@H](C)CC[C@]2(C(=O)O)CC[C@]3(C)C(=CC[C@@H]4[C@@]5(C)CC[C@H](O)C(C)(C)[C@@H]5CC[C@]43C)[C@H]12` [URSOLIC ACID] as the compound, how does the pIC50 (AGS) read?
**A.** 4.36

**Q.** And the pIC50 [13]?
**A.** 4.67

**Q.** And the pIC50 [14]?
**A.** 4.58

**Q.** What about the GI50 (MCF7 [15]) of the same compound?
**A.** 21 µM

**Q.** What about the GI50 (MDA-MB-231 [16]) of the same compound?
**A.** 11.1 µM

**Q.** What about the pIC50 (HMEC) of the same compound?
**A.** 4.41

From ChEMBL document CHEMBL4270495, “Oleanane-, ursane-, and quinone methide friedelane-type triterpenoid derivatives: Recent advances in cancer treatment” (Eur J Med Chem, 2017)
